Laboratory results: US6921770B2 (priority 2000, dated 2005)

What follows are molecules tested on rice blast fungi. Conditions: not given.
Format: in vivo, Pyricularia grisea

Molecule | Inhibiting Ratio (%) (at 250 ppm)
Cl.Cn1c(CC(=O)Nc2ccc(Cl)cc2)csc1=Nc1cccc(F)c1 [Compound 129, 2-(3-fluorophenylimino)-3-methyl-4-[N-(4-chlorophenyl)carbamoylmethyl]-1,3-thiazol-4-ine hydrochloride] | 96
COc1ccc(NC(=O)Cc2csc(=Nc3cc(C)ccc3OC)n2C)cc1.Cl [Compound 198, 2-(2-methoxy-5-methylphenylimino)-3-methyl-4-[N-(4-methoxyphenyl)carbamoylmethyl]-1,3-thiazol-4-ine hydrochloride] | 95
Cl.Cn1c(CC(=O)Nc2ccc([N+](=O)[O-])cc2)csc1=Nc1ccc(OC(F)(F)F)cc1 [Compound 176, 2-(4-trifluoromethoxyphenylimino)-3-methyl-4-[N-(4-nitrophenyl)carbamoylmethyl]-4-thiazoline hydrochloride] | 96
2-(2,4-difluorophenylimino)-3-methyl-4-[N-(methoxyphenyl)carbamoylmethyl]-1,3-thiazol-4-ine [Compound 340] | 94
2-(3-fluorophenylimino)-3-methyl-4-[N-(methoxyphenyl)carbamoylmethyl]-1,3-thiazol-4-ine [Compound 337] | 95
Br.CC(C)Oc1cc(N=c2scc(CC(=O)Nc3ccccc3)n2C)c(F)cc1Cl [Compound 69, 2-(4-chloro-2-fluoro-5-isoproxyphenylimino)-3-methyl-4-(N-phenylcarbamoylmethyl)-1,3-thiazol-4-ine hydrobromide] | 96
Br.Cn1c(CC(=O)Nc2cccc(Cl)c2)csc1=Nc1cccc(F)c1 [Compound 59, 2-(3-fluorophenylimino)-3-methyl-4-[N-(3-chlorophenyl)carbamoylmethyl]-1,3-thiazoyl-4-ine hydrobromide] | 96
Cl.Cn1c(CC(=O)Nc2ccccc2F)csc1=Nc1ccc(Cl)cc1F [Compound 150, 2-(4-chloro-2-fluorophenylimino)-3-methyl-4-[N-(2-fluorophenyl)carbamoylmethyl]-1,3-thiazol-4-ine hydrochloride] | 96
Br.Cc1ccc(NC(=O)Cc2csc(=Nc3ccc([N+](=O)[O-])cc3F)n2C)cc1 [Compound 55, 2-(2-fluoro-4-nitrophenylimino)-3-methyl-4-[N-(4-methylphenyl)carbamoylmethyl]-1,3-thiazol-4-ine hydrobromide] | 96
COc1ccc(NC(=O)Cc2csc(=Nc3cc(OC(C)C)c(Cl)cc3F)n2C)cc1.Cl [Compound 208, 2-(4-chloro-5-isopropoxy-2-fluorophenylimino)-3-methyl-4-[N-(4-methoxyphenyl)carbamoylmethyl]-1,3-thiazol-4-ine hydrochloride] | 97
Br.Cn1c(CC(=O)Nc2ccccc2)csc1=Nc1ccc(Cl)cc1F [Compound 42, 2-(4-chloro-2-fluorophenylimino)-3-methyl-4-(N-phenylcarbamoylmethyl)-1,3-thiazol-4-ine hydrobromide] | 100
Br.Cn1c(CC(=O)Nc2ccccc2)csc1=Nc1ccc(OC(F)(F)F)cc1 [Compound 39, 2-(4-trifluoromethoxyphenylimino)-3-methyl-4-(N-phenylcarbamoylmethyl)-1,3-thiazol-4-ine hydrobromide] | 99
Br.Cc1ccccc1NC(=O)Cc1csc(=Nc2ccc(C#N)cc2)n1C [Compound 324, 2-(4-cyanophenylimino)-3-methyl-4-[N-(2-methylphenyl)carbamoylmethyl]1,3-thiazol-4-ine hydrobromide] | 90
CC(C)Oc1cc(N=c2scc(CC(=O)Nc3ccc(Cl)cc3)n2C)c(F)cc1Cl.Cl [Compound 161, 2-(4-chloro-5-isopropoxy-2-fluorophenylimino)-3-methyl-4-[N-(4-chlorophenyl)carbamoylmethyl]-1,3-thiazol-4-ine hydrochloride] | 86
CC(C)Oc1ccc(N=c2scc(CC(=O)Nc3ccccc3F)n2C)cc1.Cl [Compound 105, 2-(4-isopropoxyphenylimino)-3-methyl-4-[N-(2-fluorophenyl)carbamoylmethyl]-1,3-thiazol-4-ine hydrochloride] | 90
Cc1ccc(NC(=O)Cc2csc(=Nc3ccc(F)cc3F)n2C)cc1Cl.Cl [Compound 232, 2-(2.4-difluorophenylimino)-3-methyl-4-[N-(3-chloro-4-methylphenyl)carbamoylmethyl]-4-thiazoline hydrochloride] | 92

Molecule | Inhibiting Ratio (%) (at 250 ppm)
Cl.Cn1c(CC(=O)Nc2ccc(Br)cc2)csc1=Nc1ccc(Br)cc1 [Compound 143, 2-(4-bromophenylimino)-3-methyl-4-[N-(4-bromophenyl)carbamoylmethyl]-1,3-thiazol-4-ine hydrochloride] | 95
Br.Cc1cc(Br)ccc1N=c1scc(CC(=O)Nc2ccccc2)n1C [Compound 26, 2-(4-bromo-2-methylphenylimino)-3-methyl-4-(N-phenylcarbamoylmethyl)-1,3-thiazol-4-ine hydrobromide] | 100
Cl.Cn1c(CC(=O)Nc2ccc(Br)cc2)csc1=Nc1ccc(F)cc1 [Compound 136, 2-(4-fluorophenylimino)-3-methyl-4-[N-(4-bromophenyl)carbamoylmethyl]-1,3-thiazol-4-ine hydrochloride] | 97
CC(C)Oc1cc(N=c2scc(CC(=O)Nc3ccccc3F)n2C)c(F)cc1Cl.Cl [Compound 151, 2-(4-chloro-2-fluoro-5-isopropoxyphenylimino)-3-methyl-4-[N-(2-fluorophenyl)carbamoylmethyl]-1,3-thiazol-4-ine hydrochloride] | 96
Br.Cn1c(CC(=O)Nc2cccc(Cl)c2)csc1=Nc1cccc(C(F)(F)F)c1 [Compound 19, 2-(3-trifluoromethylphenylimino)-3-methyl-4-[N-(3-chlorophenyl)carbamoylmethyl]-1,3-thiazol-4-ine hydrobromide] | 91
Cc1cccc(NC(=O)Cc2csc(=Nc3cc(OC(C)C)c(Cl)cc3F)n2C)c1 [Compound 333, 2-(2-fluoro-4-chloro-5-isopropoxyphenylimino)-3-methyl-4-[N-(3-methylphenyl)carbamoylmethyl]-1,3-thiazol-4-ine] | 98
Br.COc1ccc(NC(=O)Cc2csc(=Nc3ccccc3)n2C)cc1 [Compound 306, 2-phenylimino-3-methyl-4-[N-(4-methoxyphenyl)carbamoylmethyl]-1,3-thiazol-4-ine hydrobromide] | 93
Cl.Cn1c(CC(=O)Nc2ccc(Br)cc2)csc1=Nc1ccc(F)cc1F [Compound 133, 2-(2,4-difluorophenylimino)-3-methyl-4-[N-(4-bromophenyl)carbamoylmethyl]-1,3-thiazol-4-ine hydrochloride] | 99
Br.COc1ccccc1N=c1scc(CC(=O)Nc2cccc(C(F)(F)F)c2)n1C [Compound 65, 2-(2-methoxyphenylimino)-3-methyl-4-[N-(3-trifluoromethylphenyl)carbamoylmethyl]-1,3-thiazol-4-ine hydrobromide] | 98
Cl.Cn1c(CC(=O)Nc2ccc(Br)cc2)csc1=Nc1ccc(OC(F)(F)F)cc1 [Compound 139, 2-(4-trifluoromethoxyphenylimino)-3-methyl-4-[N-(4-bromophenyl)carbamoylmethyl]-1,3-thiazol-4-ine hydrochloride] | 99
Cc1ccc(NC(=O)Cc2csc(=Nc3ccc(Br)cc3)n2C)cc1Cl.Cl [Compound 229, 2-(4-bromophenylimino)-3-methyl-4-[N-(3-chloro-4-methylphenyl)carbamoylmethyl]-4-thiazoline hydrochloride] | 93
CC(C)Oc1cc(N=c2scc(CC(=O)Nc3ccc(C#N)cc3)n2C)c(F)cc1Cl.Cl [Compound 226, 2-(4-chloro-5-isopropoxy-2-fluorophenylimino)-3-methyl-4-[N-(4-cyanophenyl)carbamoylmethyl]-4-thiazoline hydrochloride] | 92
Br.Cn1c(CC(=O)Nc2ccccc2)csc1=Nc1cc(C(F)(F)F)cc(C(F)(F)F)c1 [Compound 45, 2-(3,5-ditrifluoromethylphenylimino)-3-methyl-4-(N-phenylcarbamoylmethyl)-1,3-thiazol-4-ine hydrobromide] | 93
Cc1ccc(NC(=O)Cc2csc(=Nc3cc(OC(C)C)c(Cl)cc3F)n2C)cc1Cl.Cl [Compound 257, 2-(4chloro-2-fluoro-5-isopropoxyphenylimino)-3-methyl-4-[N-(3-chloro-4-methylphenyl)carbamoylmethyl]-1,3-thiazol-4-ine hydrochloride] | 88
COc1ccc(NC(=O)Cc2csc(=Nc3ccc(Cl)cc3)n2C)cc1.Cl [Compound 104, 2-(4-chlorophenylimino)-3-methyl-4-[N-(4-methoxyphenyl)carbamoylmethyl]-1,3-thiazol-4-ine hydrochloride] | 93
Br.CCc1ccc(N=c2scc(CC(=O)Nc3ccc(Cl)cc3)n2C)cc1 [Compound 304, 2-(4-ethylphenylimino)-3-methyl-4-[N-(4-chlorophenyl)carbamoylmethyl]-1,3-thiazol-4-ine hydrobromide] | 100

Same assay, conditions: hydrobromide

Molecule | Inhibiting Ratio (%) (at 250 ppm)
Br.Cc1cc(Cl)ccc1N=c1scc(CC(=O)Nc2cccc(Cl)c2)n1C [Compound 63, 2-(4-chloro-2-methylphenylimino)-3-methyl-4-[N-(3-chlorophenyl)carbamoylmethyl]-1,3-thiazol-4-ine hydrobromide] | 96
